# Measurements from patent US5324725A, “7-fused 2-(piperazinoalkyl) indole derivatives, intermediates and compositions thereof” (Kali-Chemie Pharma GmbH, priority 1991, dated 1994).
# Where two headings read alike, the source gives them in different places.
# Assays:
# [1] = test system: P.A.F.-induced aggregation of platelets from rabbit blood; assay: Anti-P.A.F. effect in vitro: inhibition of P.A.F.-induced platelet aggregation; assay type: cell-based, rabbit (New Zealand hybrids); conditions: test substance concentration 10^-5 mol/l; for inhibition at 10 µM: Oryctolagus cuniculus, Platelet
# Description: 4. Determination of anti-P.A.F. effect in vitro.
# Platelet-activating factor (P.A.F.) is a phospholipid mediator which has several effects. The activation of platelet aggregation leads to the induction of protracted broncho contractions and hyperreactivity of the airways.
# The effects of the test substances on platelet aggregation induced by adding P.A.F. to a platelet suspension obtained from rabbit blood was investigated by the method described by Mikashima et al. (Jap. J. Pharmacol. 44 (1987) 387-391).
# A suspension of platelets originating from rabbit blood was used which contained 4×10^9 platelets/ml in a modified Tyrode buffer solution adjusted to pH 7.4. Tyrode solution is an aqueous solution containing 136.9 mmol of NaCl, 2.68 mmol of KCl, 2.31 mmol of CaCl2, 1.0 mmol of MgCl2, 11.9 mmol of NaHCO3, 1.45 mmol of NaH2 PO4 and 5.55 mmol of glucose per liter. This solution was modified by adding 1.3 mM/l of CaCl2 and 2.5 g/l of gelatin. The platelets were obtained from 10 ml blood samples from each of three rabbits (New Zealand hybrids, body weight 3-4 kg). For this, the blood samples were treated with ethylenediaminetetraacetic acid and washed by the method of Artley et al. (Brit. J. Hamatol. 19 (1970), 7-17). A platelet-rich plasma was then initially separated by centrifugation (20 minutes at 400×g). The platelets were separated from the plasma by centrifuging again for 15 minutes at 1400×g. After centrifuging, the platelets remaining as a sediment were resuspended in a calcium-free Tyrode buffer solution. 0.4 mmol of lysine acetylsalicylate were then added and after 15 minutes the blood platelets were sedimented again. The sediment was resuspended in the abovementioned modified Tyrode buffer solution, and the number of platelets in the resulting suspension was adjusted to the desired content.
# A 40×10^-9 molar P.A.F. solution was used as the reagent. This solution was prepared from a 1.8×10^-3 molar stock solution in chloroform. For this, a 10μl sample of the stock solution was evaporated to dryness and redissolved in 180 μl of the modified Tyrode solution, to which 0.25% of dilapidated bovine serum albumin had been added. 10^-5 molar working solutions were then prepared from this and stored frozen. Samples of these solutions were appropriately diluted for the tests.
# To carry out the tests, 50 μl of the platelet solution and 10 μl of a 40×10^-5 molar solution of the compound to be investigated were added to 330 μl of the modified Tyrode buffer solution with stirring (1000 rpm) in an aggregation tube provided with a small magnetic stirrer. This corresponds to a final test substance concentration of 10^-5 mol/l. After a preincubation time of 90seconds, 10 μl of the P.A.F. preparation were added. The aggregation occurring in the aggregation tubes was measured for 4-5 minutes using a computerized aggregometer.
# The aggregation occurring in the test tubes containing only platelet suspension was rated as 0%. The aggregation occurring in test tubes containing platelet suspension and P.A.F. preparation was rated as 100%. The aggregation which still occurred in the presence of the test substances (i.e. during inhibition of the P.A.F.-induced platelet aggregation increase) was measured, and the resulting aggregation inhibition is calculated from this in %.
# histamine (H1) receptor = target: T1, histamine (H1) receptor (Cavia porcellus, UniProt P31389); assay: Antihistamine (H1) effect: inhibition of histamine-induced contractions of isolated guinea-pig ileum in vitro; assay type: cell-based, guinea-pig (Dunkin Hartley); conditions: histamine 5 × 10^-6 mol/l, test substance 10^-6 mol/l
# T1 construct: isolated smooth muscle of the guinea-pig ileum; from tissue; host or cells: isolated ileum segments of Dunkin Hartley guinea-pigs
# Procedure: 3. Investigation of the antihistamine (H1) effect based on histamine (H1) receptor antagonism in vitro.
# To investigate the histamine (H1) receptor antagonism of the substances, the inhibitory effect thereof on histamine-induced contractions of the smooth musculature of isolated organ was determined in vitro. Isolated strips of organ from the ileum were used. In an organ bath of physiological saline solution, they react to addition of histamine by contracting. Addition of the compounds of the invention decreases this histamine-induced contraction of the smooth musculature of the ileum strips. The extent of decrease of the contraction is an indication of the antihistamine (H1) activity of the compounds. The investigation is carried out analogously to the method originally described by Magnus (Pflugers Arch. 102, 123 (1904)).
# Experimental description of the determination of the inhibitory effect on the contraction induced by a 5×10^-6 molar histamine concentration on isolated smooth muscle of the guinea-pig ileum.
# For the test, 1.5 cm long segments of the ileum from Dunkin Hartley guinea-pigs having a body weight of 300-500 g were employed. Each strip was placed in an organ bath of 10 ml of Krebs-Henseleit physiological saline solution and attached to a customary apparatus for isotonically measuring changes in length of the ileum strip (automated Celaster measuring apparatus) so that the tissue is under a tension of 1 g. The bath was kept at a pH of 7.4 and aerated with a mixture of 5% CO2 and 95% O2. After an equilibration phase, an isotonic contraction of the tissue was produced by adding histamine in a final concentration of 5×10^-6 mol/l and was washed out again after a contact time of 30 seconds. Only those tissues in which three reproducible contractions were obtained at 10 minute intervals were used in the subsequent test. The test substances were then added in a final concentration of 10^-6 mol/l, and after a contact time of 30 seconds histamine was again added up to a concentration of 5×10^-6 mol/l. The contractions which occurred were measured over the course of 30 seconds. The tissue was then washed several times over a period of 10 minutes. A contraction challenge was then induced again by addition of histamine. The contractions which occurred were again measured over 30 seconds. The difference between the amplitude of the contraction obtained by histamine addition alone and the amplitude of the contraction obtained in the presence of the test substance was determined and calculated as % inhibition.
# The inhibitory effects on the contractions induced by histamine 30 seconds after administration of the test substance and on the contractions induced by addition of histamine 10 minutes afterward are given in the table.
# [2] = after 30 sec., read-out: in vitro (H1) receptor antagonism % inhibitory effect on histamine-induced contractions of the Ileum, after 30 sec.
# [3] = after 10 min. (after washing), read-out: in vitro (H1) receptor antagonism % inhibitory effect on histamine-induced contractions of the Ileum, after 10 min.
# T1 sequence (P31389 whole entry): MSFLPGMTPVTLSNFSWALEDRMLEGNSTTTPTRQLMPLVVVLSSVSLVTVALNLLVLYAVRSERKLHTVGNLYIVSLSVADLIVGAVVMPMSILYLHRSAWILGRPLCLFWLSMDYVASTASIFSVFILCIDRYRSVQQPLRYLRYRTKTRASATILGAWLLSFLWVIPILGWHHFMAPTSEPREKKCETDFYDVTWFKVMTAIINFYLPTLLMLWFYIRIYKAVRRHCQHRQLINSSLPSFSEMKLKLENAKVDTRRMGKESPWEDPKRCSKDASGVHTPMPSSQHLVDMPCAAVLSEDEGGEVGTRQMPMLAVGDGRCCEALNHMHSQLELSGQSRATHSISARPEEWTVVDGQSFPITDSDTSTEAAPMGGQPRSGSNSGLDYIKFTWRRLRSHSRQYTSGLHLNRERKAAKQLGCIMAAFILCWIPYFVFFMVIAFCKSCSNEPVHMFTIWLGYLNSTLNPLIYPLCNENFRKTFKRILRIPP
Compound,inhibition at 10 µM [1],inhibition at 1 µM (histamine (H1) receptor; [2]),inhibition at 1 µM (histamine (H1) receptor; [3]),other results
Cc1ccc(-c2c(CCN3CCN(c4cc(C)ccn4)CC3)c3cccc4c3n2CCC4)cc1 [Example 86],100%,,,
"CNc1cc2c3c(c1)c(CCN1CCN(c4cc(C)ccn4)CC1)c(C)n3CCC2 [Example 29, 5,6-Dihydro-2-methyl-8-methylamino-1-{2-[4-(4-methylpyridin-2-yl)piperazin-1-yl]ethyl}-4H-pyrrolo[3,2,1-ij]quinoline]",,,,"in vitro (H1) receptor antagonism % inhibitory effect on histamine-induced contractions of the Ileum, after 30 sec. (histamine (H1) receptor; after 30 sec.): 7%; in vitro (H1) receptor antagonism % inhibitory effect on histamine-induced contractions of the Ileum, after 10 min. (histamine (H1) receptor; after 10 min. (after washing)): 30%"
Cc1ccc(N2CCN(CCc3c(C)n4c5c(cc(C(=O)C(C)C)cc35)CCC4)CC2)nc1 [Example 95],,10%,71%,
COc1ccc(-c2c(CCN3CCN(c4cc(C)ccn4)CC3)c3cccc4c3n2CCC4)cc1 [Example 96],,,,% inhibition of the P.A.F.-induced aggregation of platelets from rabbit blood [1]: 98%
"Cc1ccnc(N2CCN(CCc3c(Cc4ccccc4)n4c5c(cccc35)CCC4)CC2)c1 [Example 32, 2-Benzyl-5,6-dihydro-1-{2-[4-(4-methylpyridin-2-yl)-piperazin-1-yl]ethyl}-4H-pyrrolo[3,2,1-ij]quinoline]",100%,,,
Cc1ccnc(N2CCN(CCc3c(-c4ccc(O)cc4)n4c5c(cccc35)CCC4)CC2)c1 [Example 97],,,,% inhibition of the P.A.F.-induced aggregation of platelets from rabbit blood [1]: 99%
CSc1cc2c3c(c1)c(CCN1CCN(c4cc(C)ccn4)CC1)c(C)n3CCS2 [Example 78],98%,12%,92%,
"Cc1ccnc(N2CCN(CCc3c(C)n4c5c(cccc35)CCCC4)CC2)c1 [Example 31, 4,5,6,7-tetrahydro-2-methyl-1-{2-[4-(4-methylpyridin-2-yl)piperazin-1-yl]ethyl}-pyrrolo[3,2,1-jk]benzazepine]",95%,31%,89%,
